The results in this text go back to patent US10300107B2, “Compositions and methods for CaMKII inhibitors and uses thereof” (THE REGENTS OF THE UNIVERSITY OF COLORADO, priority 2007, dated 2019).

“And” between values parts separate entries of the source, which are not always exact repeats. Equal values may be shown once. “Also recorded” adds a separate entry of the source. Read-outs that look alike come from different tables or passages of the source. Where no end group is shown, it is not given here.

Test [1] deals with hippocampal and cortical cultures. Nature of the test: Glutamate induced neuronal cell death measured by LDH release. The format is cell-based, rat. As for the experimental part: In another example, neuronal cell death is measured by LDH release. In this exemplary method, glutamate was used to induce neuronal cell death, A portion of CaMKIIN was fused to a cell penetrating molecule to generate tatCN21a construct.
On the technique in general: LDH leaks from cells whose membrane has failed.

The next test relates to Langerhans' islets. Kind of test: Glucose-induced insulin secretion from isolated Langerhans' islets. It counts as cell-based, rat. The settings on record: 11 mM glucose; EGTA 0.5 mM, KN93 10 μM, antCN27 5 μM, tatCN21 5 μM.
Test [2] concerns the target T1, CaMKII binding to GST-NR2B-c (Homo sapiens, UniProt Q9UQM7).
T1 construct: made in house; host or cells: CaMKII: baculovirus/Sf9; GST-NR2B-c and CaM: bacteria
Kind of test: Ca2+/CaM-induced CaMKII binding to immobilized GST-NR2B-c. The settings on record: Western blot of eluted CaMKII. On the technique in general: A western blot detects proteins with antibodies after separation by electrophoresis.
Description: CaMKII binding to NR2B-c was assessed as previously described. Briefly, GST-NR2B-c was immobilized on anti-GST coated microtiter plates, then overlaid with 100 nM CaMKII in presence of Ca^2+/CaM and 1 or 5 μM of various CN peptides. After extensive wash, protein was eluted from the plates by boiling in SDS-loading buffer. Eluted CaMKII was detected by Western-blot as described above.

Test [3] has as its target T2, CaMKII (Homo sapiens, UniProt Q9UQM7).
T2 construct: made in house; host or cells: baculovirus/Sf9 cells
Nature of the test: Autonomous CaMKII activity (pre-autophosphorylated CaMKII). The format is biochemical. The protocol:
(§1) Stimulated CaMKII activity was assessed using purified CaMKII, [γ^32P]ATP, and the CaMKII substrate, syntide2. Reaction was initiated by addition of calcium and calmodulin. To measure autonomous activity, CaMKII was pre-autophosphorylated by incubation with calcium and calmodulin, which was then chelated by addition of EDTA prior to adding the kinase to syntide2 and [γ^32P]ATP. […] To measure self-association, purified CaMKII was incubated for five minutes with 1mM ADP, calcium and calmodulin, and the appropriate inhibitor. The reaction mixture was then centrifuged to pellet the self-associated kinase. The supernatant (S) was removed and saved and the pellet (P) was resuspended. Both were then resolved by SDS-PAGE and western-blotted for CaMKII. Self-associated kinase is found in the pellet.

In test [4] the target is T2, CaMKII. Kind of test: CaMKII self-association in vitro. The format is biochemical. The protocol:
as §1

Test [5] deals with T2, CaMKII. Nature of the test: CaMKII auto- and protein-phosphorylation (MAP2, T286, T305; immuno-blot). It counts as biochemical. The following applies: KN93 10 μM. As for the experimental part: CaMKII auto- and protein-phosphorylation. 10 nM MAP2 (˜140 nM phosphorylation sites) was used instead of substrate peptide, and reaction times were 5 min, unless indicated otherwise. CaMKII concentration was 100 nM subunits (=8.3 nM holoenzymes). Auto- and MAP2-phosphorylation were assessed by Immuno-blot analysis previously derived (Bayer et al., 2002, incorporated herein by reference) with phospho-T286- or -T305-specific antibodies (1:500; PhosphoSolutions) and an anti-phospho-Thr antibody (1:500; Zymed), respectively. Total CaMKIIα was detected with CBα2 antibody (1:2000; GIBCO). Protein were separated on 10% poly-acrylamid SDS Gels, and electro-blotted onto “Protran” 0.2 μm pore nitrocelluse filters (e.g. Schleicher & Schull) or onto PVDF filters (e.g. Perkin Elmer). Alternatively, for quantitative analyses, a vacuum-driven slot-blot manifold (e.g. Schleicher & Schull) was used for transfer onto PVDF membranes. PVDF membranes were air-dried for 15 min, then wetted in Methanol. Blots were blocked in 5% milk in TBS-T (Tris-buffered saline pH 7.6 with 0.1% Tween-20). Antibodies were incubated for 45-60 min at room temperature in 2.5% milk in TBS-T; for the anti-phospho-T305 antibody, 2.5% BSA was used instead. After secondary antibody incubation (anti-mouse or anti-rabbit horseradish peroxidase conjugate; Amersham; 1:4000), detection was done using the “Western Lightning” system (Perkin Elmer) and exposure to “Hyperfilm” (Amersham). For quantitative analysis, chemoluminescence was captured using a ChemiImager 4400 imaging system (Alpha Innotek) instead of film. Only non-saturated images were analyzed, using AlphaEase software.

Test [6] relates to CaMKII. It counts as biochemical. The settings on record: for potency of CaMKII inhibition of CN19 combination mutants: comparator as stated in the value; for effect of further mutation on potency of CaMKII inhibition: CN19a2v background; for IC50: read-out: IC50 of CaMKII inhibition. As for the experimental part:
CaMKII activity assays. Standard CaMKII assays were done for 1 min at 30° C. previously described, with 20 nM CaMKII (subunit, not holoenzyme concentration), 50 mM PIPES pH 7.2, 0.1 mg/ml BSA, 10 mM MgCl2, 100 μM [γ-^32P] ATP (˜1 Ci/mmol), 1 mM CaCl2, 1-2 μM CaM, and 30-60 μM AC2 peptide (or syntide2). The reactions were spotted onto Whatman P81 phosphocellulose paper rectangles (˜2×2.5 cm). To remove free radioactivity, the paper rectangles were rinsed and washed for 30 min under agitation in 0.5% phosphoric acid or water. […] Radioactivity of the bound peptides was quantified in a Beckman 6000TA scintillation counter by the Cherenkov method. Any changes of the standard protocol were done as indicated. For assays of the GFP-CaMKIIα mutants, kinase amounts were normalized by GFP fluorescence in the extract, and total protein was adjusted with Cos-7 extracts.

For another test, the target named is CaMKI (Homo sapiens, UniProt Q14012). Nature of the test: CaMKI activity / inhibition. The format is biochemical. The source says: For curve fit, the Hill coefficient was set as 1.
Chain of CaMKI (Q14012 whole entry, species assumed): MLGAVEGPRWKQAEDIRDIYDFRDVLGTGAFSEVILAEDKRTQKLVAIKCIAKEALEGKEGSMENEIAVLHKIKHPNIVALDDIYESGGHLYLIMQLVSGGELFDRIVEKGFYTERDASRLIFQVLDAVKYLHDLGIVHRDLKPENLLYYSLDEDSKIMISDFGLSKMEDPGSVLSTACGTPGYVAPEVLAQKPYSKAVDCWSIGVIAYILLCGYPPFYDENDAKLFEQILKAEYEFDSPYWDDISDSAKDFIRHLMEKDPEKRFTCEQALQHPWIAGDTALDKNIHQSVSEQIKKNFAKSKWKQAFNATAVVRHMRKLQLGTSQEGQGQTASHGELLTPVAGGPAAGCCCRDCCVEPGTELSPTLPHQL
The next test relates to protein kinase C (PKC). Kind of test: Phosphorylation of CN19 peptides by PKC in vitro. The format is biochemical. The source says: CN19 phosphorylation at S12 by protein kinase C reduces potency of CaMKII inhibition. In another exemplary method, protein kinase C (PKC) activity was examined with respect to CN19 as a substrate or the S12 mutant. […] The CN19 region most sensitive to Ala substitutions (surrounding R11) contains a potential PKC phosphorylation site (S12).
FIGS. 22A and 22B represent CN19 phosphorylation at S12 by PKC reduces potency of CaMKII inhibition. A, PKC phosphorylated CN19 but not its S12A mutant in vitro, as measured by phosphate incorporation. The phosphorylation rate of CN19 was >50% compared to a MARCKS peptide substrate of PKC. […] S12 was sensitive also to various other mutations (see Table 1 and data not shown). Error bars indicate s.e.m. in all panels.

In a further test the target is calmodulin (CaM) (Homo sapiens, UniProt P0DP23). Nature of the test: Binding to calmodulin (slot blot, blot overlay, TA-CaM competition with CBD). The following applies: for binding of biotinylated CaM to immobilized peptide: slot blot.

Description for Langerhans' islets: Insulin secretion. Langerhans' islets acutely isolated from adult male Wistar rats (Harlan) were obtained. […] Inhibitors or EGTA were added 30 min before stimulation. Insulin secreted into the medium during 90 min stimulation was measured using an ELISA kit (CrystalChem).
Description for calmodulin (CaM): TA-labeled CaM represents reduced fluorescence after binding to CaMKII or its CaM binding domain (CBD; −0.05 nM kD for CaM^5; see also FIG. 9G).
Measured was AC2 phosphorylation as described^4. Error bars show s.e.m.

Take `N[C@@H](CCCP(=O)(O)O)C(=O)O` [APV]: the “glutamate induced cell death” value in test [1] (7DIV cortical, added 1-6 hours post insult) is “did not”. The “glutamate induced neuronal cell death” value in [1] (present during the insult) is recorded as “only reduces cell death when present during the insult”.
`O=C(O)CN(CCOCCOCCN(CC(=O)O)CC(=O)O)CC(=O)O` [EGTA]: the glucose-induced insulin secretion result in the test with Langerhans' islets was “inhibited”.
Take `CC1CNCCN1S(=O)(=O)c1cccc2cnccc12` (stereo not shown) [H7, reference compound]: the “CaMKII binding to immobilized GST-NR2B-c / NR2B” value in test [2] is reported as “did not”.
Take `COc1ccc(S(=O)(=O)N(CCO)c2ccccc2CN(C)C/C=C/c2ccc(Cl)cc2)cc1` [KN93, reference compound]: the glucose-induced insulin secretion entry with Langerhans' islets is “inhibited”. In addition, the “glutamate induced neuronal cell death” value in test [1] (added 1 h after the insult) is given as “not when added after the insult; also recorded: only when applied during but not after glutamate insult”; in test [1] (present during the insult), “protective only when present during the insult; also recorded: reduce by half”. Moreover, on CaMKII [3], the “autonomous CaMKII activity” value is reported as “only tatCN21 inhibits autonomy”. The “CaMKII self-association in vitro” value at CaMKII [4] was “inhibited”. Also, the “CaMKII binding to immobilized GST-NR2B-c / NR2B” value in [2] is recorded as “inhibited binding”. For the same compound, the “CaMKII T305 auto-phosphorylation” value at CaMKII [5] (CN21 5 μM) was “blocked T305”. Besides, at CaMKII [5] (CN peptides 1-5 μM), the “CaMKII T286 auto-phosphorylation” value is “essentially completely blocked”. In the test with CaMKII [6] (substrate syntide2), the “calcium and calmodulin stimulated CaMKII activity” value was “inhibit calcium and calmodulin stimulated CaMKII activity”.
With “CN17a: C-terminal truncation of CN21a by 4 amino acids (KRPPKLGQIGRSKRVVI)”, the “inhibitory potency on CaMKII activity” value with CaMKII [6] (CN truncation peptides, substrate peptides AC2 or syntide 2) is “still clearly affected CaMKII activity”.
For the compound “CN19a2: CN19 double mutant P3A, R14A, SEQ ID NO: 25 (KRAPKLGQIGRSKAVVIED; Derived from CamKIIN with amino acid substitutions)”, the “potency of CaMKII inhibition of CN19 combination mutants” value is recorded as “largest increase in CaMKII inhibition potency; also recorded: most potent double mutant of CN19” with CaMKII [6] and “higher potency than the a3 mutant; also recorded: significant inhibition even at 10 nM” in the test on CaMKII [6] (listed as a2).
Turning to “CN19a3: CN19 triple mutant P3A, K13A, R14A (KRAPKLGQIGRSAAVVIED)”, the “potency of CaMKII inhibition of CN19 combination mutants” value in the test on CaMKII [6] is on record as “significantly increased over CN19 wild type; also recorded: significantly increased potency compared to single mutant with the highest potency, R14A”; in the test on CaMKII [6] (listed as a3) it was “significantly increased potency of CaMKII inhibition over CN19 wild type; also recorded: slightly better inhibition than the aX mutant”.
“CN27: CaM-KIINtide, previously identified inhibitory region of CaM-KIIN, SEQ ID NO:17 (KRPPKLGQIGRSKRVVIEDDRIDDVLK; Derived from CaMKIIN) [reference compound]”: in the test on CaMKII [6], the “inhibition of CaMKII isoforms α and β” value is “inhibit both major brain CaMKII isoforms, α and β”. For the same compound, the “effect on CaMKI activity” value with CaMKI was “no significant effect”.
In general, IC50 refers to the concentration that gives 50% inhibition. KRAPKLGQIGRQKAVVIED [CN19a2v V12Q]: the “effect of further mutation on potency of CaMKII inhibition” value in the test with CaMKII [6] is listed as “significantly increase potency; also recorded: dramatically increase CaMKII inhibition”. Besides, the 50% inhibitory concentration (IC50) in the test on CaMKII [6] (phosphorylation of syntide 2) is roughly 0.001 µM.
For KRAPKLGQIGRVKAVDIED [CN19a2v V16D], in that order: “significantly increase potency; also recorded: dramatically increase CaMKII inhibition” and roughly 0.001 µM.
Turning to KRAPKLGQIGRVKAVVIED [CN19a2v], in the test on CaMKII [6], the “increase of potency of CaMKII inhibition compared to CN19” value is “about 5 fold” and the “potency of CaMKII inhibition of CN19 combination mutants” value is “without loss of inhibition potency; also recorded: significantly stronger compared to CN19a3 with additional S12V mutation; also recorded: did not reduce potency”. The IC50 with CaMKII [6] (phosphorylation of syntide 2) is ~0.02 µM and 0.02 µM. At CaMKI, the half-inhibitory concentration (IC50) was roughly 18 µM.
Take KRPPKLGQIGRSKAVVIED [R14A]: the “increase of potency of CaMKII inhibition compared to CN19” value in the test with CaMKII [6] was “over 10 fold”. The “effect of single CN19 mutation on potency of CaMKII inhibition” value in the test on CaMKII [6] (compared to CN19 wild type) is given as “significantly increased potency; also recorded: very potent”. Further, the “IC50 of CaMKII inhibition” value with CaMKII [6] (phosphorylation of syntide 2) is “single digit”.
Regarding KRPPKLGQIGRSKRVVIED [CN19], in the test with protein kinase C (PKC), the “phosphorylated by PKC” value is on record as “phosphorylated by PKC” and the “phosphorylation rate by PKC compared to MARCKS peptide substrate” value was greater than 50%. At CaMKI, the IC50 was roughly 36 µM and the “effect on CaMKI activity” value was “no significant effect”.
As to KRPPKLGQIGRSKRVVIEDD [CN20], in the test on CaMKII [6] (phosphorylation of syntide 2), the IC50 is roughly 0.1 µM.
As usually defined, the Kd is the concentration at which binding is half-saturated. Low values mean higher affinity, high ones lower affinity. For the compound RQIKIWFQNRRMKWK [ant], on calmodulin (CaM), the Kd is roughly 0.005 µM, the “competition with CBD for binding of TA-labeled CaM” value is on record as “compete” and the “binding of biotinylated CaM to immobilized peptide” value is recorded as “Direct binding”. In addition, the “interference with Ca2+-dependent CaM binding to brain proteins” value on calmodulin (CaM) (blot overlay assay, 5 μM peptide) was “also interfered with such CaM binding, but somewhat less efficiently than antCN27; also recorded: affect Ca^2+-dependent CaM binding”.
On to “V16D: CN19 position 16 substituted with D (rational mutagenesis) (KRAPKLGQIGRVKAVDIED)”, for which, in the test with CaMKII [6] (value = substituting residue listed under +), the “Effects of individual CN19 mutations on CaMKII inhibition: column +” value is “D*”.
Take “tat: cell penetrating sequence YGRKKRRQRRR, SEQ ID NO:15 [reference compound]”: the “binding of biotinylated CaM to immobilized peptide” value with calmodulin (CaM) is listed as “did not bind”. For the same compound, in the test with CaMKI, the “effect on CaMKI activity” value was “statistically significant but much milder effects”.
